The source of these data is US20240261417A1, “SOS1 DEGRADING AGENT AND PREPARATION METHOD THEREFOR AND APPLICATION THEREOF” (SHANGHAI LEADINGTAC PHARMACEUTICAL CO. LTD., priority 2021, published 2024).

Test [1] deals with KRAS G13D mutant human colorectal adenocarcinoma epithelial cells DLD-1. The test can be described thus: 3D cell proliferation inhibition assay, DLD-1. The test is classed as cell-based. The settings on record: Homo sapiens, DLD-1, 168 h, 7 days, CTG. The protocol:
(§1) Inhibition of 3D cell proliferation by the compounds was investigated on KRAS G12C mutant human non-small cell lung cancer cells NCI-H358 (ATCC or Stem Cell Bank, Chinese Academy of Sciences), KRAS G12D mutant human metastatic pancreatic adenocarcinoma cells AsPC-1 (ATCC), KRAS G12V mutant human lung adenocarcinoma cells NCI-H441 (ATCC), and KRAS G13D mutant human colorectal adenocarcinoma epithelial cells DLD-1 (ATCC). The specific procedures were as follows:
(§2) 200 nL of compound solution diluted in a gradient was added to corresponding microwells of a 384-well low-adsorption microwell plate (Corning, 3657) using an Echo sonic pipetting system (Labcyte, Echo 550), so that the final concentration of the test compound in the reaction system was in a range of 20000 nM-0.008 nM. Then 40 μL of cells at a certain density were added to the corresponding microplate. In addition to test wells for the test compounds, both a DMSO control well and a medium control well were set, with the DMSO control well containing DMSO and cells and the medium well containing only medium. After sample loading, the plate cover was applied, and the 384-well low-adsorption microplate was incubated in an incubator at 37° C. with 5% carbon dioxide for 7 days. After 7 days, the microplate was taken out, and 40 μL of CTG reagent (Promega, G9683) was added to each well. The plate was incubated at room temperature for 30 min and read on a microplate reader EnVision using the chemiluminescence program. The inhibition rates of the compounds at each concentration were calculated by the formula for the percentage inhibition of cell proliferation: inhibition rate %=(mean value of DMSO control group−single concentration reading value of compound)/(mean value of DMSO control group−mean value of medium control group)×100, and then nonlinear curve fitting was performed by GraphPad Prism 8 in the logarithmic concentration-inhibition rate to obtain the IC50 values of the compounds.

For test [2], the system named is KRAS G12D mutant human metastatic pancreatic adenocarcinoma cells AsPC-1. The test can be described thus: 3D cell proliferation inhibition assay, AsPC-1. The format is cell-based. The settings on record: Homo sapiens, ASPC1, 168 h, 7 days, CTG. On the procedure: as §1, §2

SMILES strings stand for the structures.

On to `COc1cc2nc(C)nc(N[C@H](C)c3cc(N)cc(C(F)(F)F)c3)c2cc1[C@H]1CC[C@H](C(=O)N2CCN(CCOCC3CCN(C(=O)c4ccc(Cl)c(N5CCC(=O)NC5=O)c4)CC3)CC2)CC1` [Example 33, 1-(5-(4-((2-(4-((1R,4R)-4-(4-(((R)-1-(3-amino-5-(trifluoromethyl)phenyl)ethyl)amino)-7-methoxy-2-methylquinazolin-6-yl)cyclohexane-1-carbonyl)piperazin-1-yl)ethoxy)methyl)piperidine-1-carbonyl)-2-chlorophenyl)dihydropyrimidine-2,4(1H,3H)-dione], for which the IC50 (as a rule, the point on the concentration scale where inhibition reaches its midpoint) in test [1] was 50 to 100 nM; in test [2] it was 100 to 1000 nM.
As for `COc1cc2nc(C)nc(N[C@H](C)c3cc(N)cc(C(F)(F)F)c3)c2cc1[C@H]1CC[C@H](C(=O)N2CCN(CC3CCC4(CC3)CCN(C(=O)c3ccc(Cl)c(N5CCC(=O)NC5=O)c3)CC4)CC2)CC1` [Example 2, 1-(5-(9-((4-((1R,4R)-4-(4-(((R)-1-(3-amino-5-(trifluoromethyl)phenyl)ethyl)amino)-7-methoxy-2-methylquinazolin-6-yl)cyclohexane-1-carbonyl)piperazin-1-yl)methyl)-3-azaspiro[5.5]undecane-3-carbonyl)-2-chlorophenyl)dihydropyrimidine-2,4(1H,3H)-dione], the IC50 was 15 to 30 nM in test [1] and 100 to 1000 nM in test [2].
On to `COc1cc2nc(C)nc(N[C@H](C)c3cc(N)cc(C(F)(F)F)c3)c2cc1[C@H]1CC[C@H](C(=O)N2CCN(CCC3CCC4(CC3)CCN(C(=O)c3ccc(Cl)c(N5CCC(=O)NC5=O)c3)CC4)CC2)CC1` [Example 1, 1-(5-(9-(2-(4-((1R,4R)-4-(4-(((R)-1-(3-amino-5-(trifluoromethyl)phenyl)ethyl)amino)-7-methoxy-2-methylquinazolin-6-yl)cyclohexane-1-carbonyl)piperazin-1-yl)ethyl)-3-azaspiro[5.5]undecane-3-carbonyl)-2-chlorophenyl)dihydropyrimidine-2,4(1H,3H)-dione], for which the results for the IC50 in test [1] and in test [2] were 30 to 50 nM and 15 to 30 nM, respectively.
Regarding `COc1cc2nc(C)nc(N[C@H](C)c3cc(N)cc(C(F)(F)F)c3)c2cc1[C@H]1CC[C@H](C(=O)N2CCC(CCOCC3CCN(C(=O)c4ccc(Cl)c(N5CCC(=O)NC5=O)c4)CC3)CC2)CC1` [Example 19, 1-(5-(4-((2-(1-((1R,4R)-4-(4-(((R)-1-(3-amino-5-(trifluoromethyl)phenyl)ethyl)amino)-7-methoxy-2-methylquinazolin-6-yl)cyclohexane-1-carbonyl)piperidin-4-yl)ethoxy)methyl)piperidine-1-carbonyl)-2-chlorophenyl)dihydropyrimidine-2,4(1H,3H)-dione], the IC50 in test [1] and in test [2] was 100 to 1000 nM in each case.
In the case of `COc1cc2nc(C)nc(N[C@H](C)c3cccc4c3CCS4(=O)=O)c2cc1[C@H]1CC[C@H](C(=O)N2CCN(CC3CCC4(CC3)CCN(C(=O)c3ccc(Cl)c(N5CCC(=O)NC5=O)c3)CC4)CC2)CC1` [Example 10, 1-(2-chloro-5-(9-((4-((1R,4R)-4-(4-(((R)-1-(1,1-dioxo-2,3-dihydrobenzo[b]thiophen-4-yl)ethyl)amino)-7-methoxy-2-methylquinazolin-6-yl)cyclohexane-1-carbonyl)piperazin-1-yl)methyl)-3-azaspiro[5.5]undecane-3-carbonyl)phenyl)dihydropyrimidine-2,4(1H,3H)-dione], the IC50 was 15 to 30 nM in test [1] and 30 to 50 nM in test [2].
Consider `CNCc1ccccc1-c1csc([C@@H](C)Nc2nc(C)nc3cc(OC)c([C@H]4CC[C@H](C(=O)N5CCN(CC6CCC7(CC6)CCN(C(=O)c6ccc(OC)c(N8CCC(=O)NC8=O)c6)CC7)CC5)CC4)cc23)c1` [Example 73, 1-(2-methoxy-5-(9-((4-((1R,4R)-4-(7-methoxy-2-methyl-4-(((R)-1-(4-(2-((methylamino)methyl)phenyl)thien-2-yl)ethyl)amino)quinazolin-6-yl)cyclohexane-1-carbonyl)piperazin-1-yl)methyl)-3-azaspiro[5.5]undecane-3-carbonyl)phenyl)dihydropyrimidine-2,4(1H,3H)-dione], for which the IC50 was in the range of 50 to 100 nM in test [1] and 100 to 1000 nM in test [2].
